In experiment [1] the target is Muscarinic acetylcholine receptors; M1 & M2 (Homo sapiens) (UniProt P11229+P08172). As to the kind of experiment: Ratio of binding affinities towards M2 receptor to M1 receptor. Type of experiment: protein assay.
The target of experiment [2] is T1, Muscarinic acetylcholine receptor M1 (Homo sapiens, UniProt P11229).
T1 sequence (P11229 whole entry): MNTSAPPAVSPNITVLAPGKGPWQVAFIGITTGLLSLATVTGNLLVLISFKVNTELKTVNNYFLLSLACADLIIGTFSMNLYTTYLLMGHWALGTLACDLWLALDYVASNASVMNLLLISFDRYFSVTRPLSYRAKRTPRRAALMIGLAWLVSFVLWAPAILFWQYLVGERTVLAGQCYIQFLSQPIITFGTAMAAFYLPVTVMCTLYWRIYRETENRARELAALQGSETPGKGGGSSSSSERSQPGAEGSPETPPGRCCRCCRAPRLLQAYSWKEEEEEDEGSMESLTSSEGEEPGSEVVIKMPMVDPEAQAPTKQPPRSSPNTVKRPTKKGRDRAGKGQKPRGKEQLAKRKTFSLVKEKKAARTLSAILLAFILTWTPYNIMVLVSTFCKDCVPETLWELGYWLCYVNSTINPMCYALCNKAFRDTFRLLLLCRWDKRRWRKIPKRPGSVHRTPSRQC
As to the kind of experiment: Binding affinity against M1 receptor expressed in CHO-K1 cells transfected with human muscarinic receptor sequence using radioligand [3H]quinuclidinyl benzilate ([3H]QNB). Type of experiment: cell-based.

In experiment [3] the target is T2, Muscarinic acetylcholine receptor M2 (Rattus norvegicus, UniProt P10980).
T2 sequence (P10980 whole entry): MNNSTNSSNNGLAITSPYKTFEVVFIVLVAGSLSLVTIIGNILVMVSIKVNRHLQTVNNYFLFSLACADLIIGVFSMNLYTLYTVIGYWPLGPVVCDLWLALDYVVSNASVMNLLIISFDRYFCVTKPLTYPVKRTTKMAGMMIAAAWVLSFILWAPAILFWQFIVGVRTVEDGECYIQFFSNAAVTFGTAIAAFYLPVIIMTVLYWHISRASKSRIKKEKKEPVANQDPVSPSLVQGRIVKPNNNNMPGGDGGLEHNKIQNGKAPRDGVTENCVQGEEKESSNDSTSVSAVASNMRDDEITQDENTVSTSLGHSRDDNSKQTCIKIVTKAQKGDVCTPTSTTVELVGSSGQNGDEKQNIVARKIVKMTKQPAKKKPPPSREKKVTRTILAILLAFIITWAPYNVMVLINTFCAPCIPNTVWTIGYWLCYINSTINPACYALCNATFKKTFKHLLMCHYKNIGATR
Put plainly: Binding affinity against M2 receptor in rat brainstem cells using radioligand [3H]quinuclidinyl benzilate ([3H]QNB). Type of experiment: cell-based, Brain.

Data on seven molecules can be found in ChEMBL document CHEMBL1128141, “Chemical modification of ring c of himbacine: Discovery of a pharmacophoric element for M2-selectivity” (Bioorg Med Chem Lett, 1995).

For `C[C@H](O)[C@H]1[C@@H](CO)C[C@H]2CCCC[C@@H]2[C@H]1/C=C/[C@H]1CCC[C@H](C)N1C`, in experiment [1], the Selectivity was 1.7. The Kd – broadly, the concentration at which binding is half-saturated – in experiment [2] amounted to 494 nM; in experiment [3], 293 nM.

For the molecule `C[C@@H]1O[C@H](O)[C@H]2C[C@H]3CCCC[C@@H]3[C@@H](/C=C/[C@H]3CCC[C@H](C)N3C)[C@H]21`, the Selectivity in experiment [1] was 4.4. Further, the figures for the Kd in experiment [2] and in experiment [3] were 423 nM and 96 nM, respectively.

As to `C[C@@H]1O[C@H](OC(=O)C(C)(C)C)[C@H]2C[C@H]3CCCC[C@@H]3[C@@H](/C=C/[C@H]3CCC[C@H](C)N3C)[C@H]21`, the Selectivity in experiment [1] amounted to 5.4. In addition, the Kd in experiment [2] came to 2520 nM; in experiment [3] it was 464 nM.

Turning to `C[C@@H]1OC[C@H]2C[C@H]3CCCC[C@@H]3[C@@H](/C=C/[C@H]3CCC[C@H](C)N3C)[C@H]21`, in experiment [1], the Selectivity came out at 0.5. Moreover, the dissociation constant Kd in experiment [2] was found to be 167 nM; in experiment [3] it was 353 nM.

Consider `CC(=O)OC[C@H]1C[C@H]2CCCC[C@@H]2[C@@H](/C=C/[C@H]2CCC[C@H](C)N2C)[C@H]1[C@H](C)OC(C)=O`, for which, in experiment [1], the Selectivity was 2.4. For the same molecule, the Kd in experiment [2] is 605 nM; in experiment [3], 249 nM.

Regarding `C[C@@H]1OC(=O)[C@H]2C[C@H]3CCCC[C@@H]3[C@@H](/C=C/[C@H]3CCC[C@H](C)N3C)[C@@H]12` [HIMBACINE], the Selectivity in experiment [1] amounted to 14.8. Also, the figures for the Kd in experiment [2] and in experiment [3] were 148 nM and 10 nM, respectively.

`CC(=O)O[C@H]1O[C@@H](C)[C@@H]2[C@H](/C=C/[C@H]3CCC[C@H](C)N3C)[C@H]3CCCC[C@@H]3C[C@H]12`: in experiment [1], the Selectivity is 9.7. For the same molecule, the Kd in experiment [2] was found to be 866 nM; in experiment [3] it was 89 nM.
